According to patent EP1075186B1, “METHOD OF HSV PROPHYLAXIS” (The Children's Hospital Research Foundation, priority 1998, dated 1999):

Experiments:
HSV-2 strain 186 [1] = experiment: Mouse genital HSV-2 model, intravaginal prophylaxis; assay type: in vivo, Swiss Webster mice
Method: Sixty female Swiss Webster mice pretreated with medroxyprogesterone acetate were randomized to four groups of 15 to receive either Saline (control), 2 % Acyclovir, 2 % Compound 96, or 0.5% Compound 96. Animals were anesthetized by intraperitoneal injection of sodium pentabarbital and then administered 15 µl of control or test compound intravaginally in one treatment. They were then immediately challenged by intravaginal instillation with 15 µl of a suspension containing 10^4 plaque forming units HSV-2 strain 186. Vaginal swabs were collected on days 1 and 2 post-inoculation (PI) to assess the effect of treatment on vaginal replication in the genital tract. In addition, all animals were examined daily until day 21 PI for mortality and signs of infection (erythema, hair loss and hind limb paralysis).

HSV-2 strain 186 [2] = experiment: as above; assay type: in vivo, Swiss Webster mice; conditions: repeat study
VZV = experiment: In vitro assay with VZV on HFF cell monolayers; assay type: cell-based; conditions: Example 2, Table 17, 0.1 mg/ml, footnote: this toxicity observation is questionable
Method: VZV was grown to a CPE level […] of 3-4 + on HFF cell monolayers. The VZV was scraped from the flask, centrifuged and the cell pellet was resuspended in 10 ml of complete medium. 100 to 200 µl of the VZV cell associated inoculum was inoculated onto confluent HFF cell monolayers by absorption for 60 minutes at 37°C. After absorption of the virus, the inoculum was aspirated from the cell monolayers.
The VZV-infected monolayers were rehydrated with medium containing the appropriate concentrations of compounds to be tested. All monolayers were incubated at 37°C. Development of VZV cytopathology was monitored daily for 7 days by inverted light microscopy. Titers were calculated by multiple regression analysis.

[3] = system: human foreskin fibroblast (HFF) cell monolayers; experiment: Toxicity effects controls (sham-inoculated compound treated HFF monolayers); assay type: cell-based; conditions: for TOXICITY EFFECTS CONTROL: Experiment 4, Table 10
Source text: Sham-incolulated, non-treated HFF cell monolayers were included along with the drug-treated monolayers as "cell monolayer controls". • 1. HSV-1 inoculated, non-compound treated HFF monolayers were included as "positive controls"; and • 2.
In the tables, the symbols have the meaning indicated: + = toxic; - = no toxicity; +/- = mild toxicity; ND = not done; T = toxicity effects interfered with CPE rating; CPE = cytopathic effect.

[4] = 0.001 mg/ml, 24 hrs post incubation
[5] = 0.001 mg/ml, 48 hrs post incubation
[6] = 0.01 mg/ml, 24 hrs post incubation
[7] = 0.01 mg/ml, 48 hrs post incubation
[8] = 0.1 mg/ml, 24 hrs post incubation
[9] = 0.1 mg/ml, 48 hrs post incubation
[10] = 0.5 mg/ml, 24 hrs post incubation
[11] = 0.5 mg/ml, 48 hrs post incubation
[12] = 1 mg/ml, 24 hrs post incubation
[13] = 1 mg/ml, 48 hrs post incubation
[14] = 5 mg/ml, 24 hrs post incubation
[15] = 5 mg/ml, 48 hrs post incubation

CC1=CC(C)=[N+]2CC[N+]3=C(C)C=C(C)[O][Co-3]23([n+]2cc[nH]c2C)([n+]2cc[nH]c2C)[O]1 [Compound 96]
signs of genital disease (HSV-2 strain 186 [1]; 2 % and 0.5% groups, 15 mice each): none of these animals developed any signs of genital disease | mortality (HSV-2 strain 186 [1]; 2 % and 0.5% groups, 15 mice each, to day 21 PI): all lived | vaginal herpes infection (HSV-2 strain 186 [1]; topical (intravaginal) application before HSV-2 challenge): completely blocked | virus in the genital tract (HSV-2 strain 186 [1]; vaginal swabs on day 1 or 2 PI): no detectable virus | protection from visible infection and death (HSV-2 strain 186 [2]; concentrations of 0.1 % or more): completely protected | animals protected from death (HSV-2 strain 186 [2]; lowest concentration of 0.01 %): 6 of 10 | VIRUCIDAL EFFICACY 7 Days Post Inoculation Efficacy (VZV): T? | TOXICITY EFFECTS CONTROLS ([3]; Experiment 1, Table 1, 0.001 mg/ml, 24 h): - | TOXICITY EFFECTS CONTROLS ([3]; Experiment 1, Table 1, 0.001 mg/ml, 48 h): - | TOXICITY EFFECTS CONTROLS ([3]; Experiment 1, Table 1, 0.01 mg/ml, 24 h): - | TOXICITY EFFECTS CONTROLS ([3]; Experiment 1, Table 1, 0.01 mg/ml, 48 h): - | TOXICITY EFFECTS CONTROLS ([3]; Experiment 1, Table 1, 0.1 mg/ml, 24 h): - | TOXICITY EFFECTS CONTROLS ([3]; Experiment 1, Table 1, 0.1 mg/ml, 48 h): - | TOXICITY EFFECTS CONTROLS ([3]; Experiment 1, Table 1, 1 mg/ml, 24 h): - | TOXICITY EFFECTS CONTROLS ([3]; Experiment 1, Table 1, 1 mg/ml, 48 h): - | toxicity ([3]; Experiment 1, 1 mg/ml): lack of toxicity | TOXICITY EFFECTS CONTROLS ([3]; Experiment 2, Table 4, 0.001 mg/ml, 24 h PI): - | TOXICITY EFFECTS CONTROLS ([3]; Experiment 2, Table 4, 0.001 mg/ml, 48 h PI): - | TOXICITY EFFECTS CONTROLS ([3]; Experiment 2, Table 4, 0.01 mg/ml, 24 h PI): - | TOXICITY EFFECTS CONTROLS ([3]; Experiment 2, Table 4, 0.01 mg/ml, 48 h PI): - | TOXICITY EFFECTS CONTROLS ([3]; Experiment 2, Table 4, 0.1 mg/ml, 24 h PI): - | TOXICITY EFFECTS CONTROLS ([3]; Experiment 2, Table 4, 0.1 mg/ml, 48 h PI): - | TOXICITY EFFECTS CONTROLS ([3]; Experiment 2, Table 4, 1 mg/ml, 24 h PI): - | TOXICITY EFFECTS CONTROLS ([3]; Experiment 2, Table 4, 1 mg/ml, 48 h PI): - | TOXICITY EFFECTS CONTROLS ([3]; Experiment 3, Table 7, 0.001 mg/ml, 24 hrs post incubation): - | TOXICITY EFFECTS CONTROLS ([3]; Experiment 3, Table 7, 0.001 mg/ml, 48 hrs post incubation): - | TOXICITY EFFECTS CONTROLS ([3]; Experiment 3, Table 7, 0.01 mg/ml, 24 hrs post incubation): - | TOXICITY EFFECTS CONTROLS ([3]; Experiment 3, Table 7, 0.01 mg/ml, 48 hrs post incubation): - | TOXICITY EFFECTS CONTROLS ([3]; Experiment 3, Table 7, 0.1 mg/ml, 24 hrs post incubation): +/- | TOXICITY EFFECTS CONTROLS ([3]; Experiment 3, Table 7, 0.1 mg/ml, 48 hrs post incubation): +/- | TOXICITY EFFECTS CONTROLS ([3]; Experiment 3, Table 7, 0.5 mg/ml, 24 hrs post incubation): - | TOXICITY EFFECTS CONTROLS ([3]; Experiment 3, Table 7, 0.5 mg/ml, 48 hrs post incubation): - | TOXICITY EFFECTS CONTROLS ([3]; Experiment 3, Table 7, 1 mg/ml, 24 hrs post incubation): - | TOXICITY EFFECTS CONTROLS ([3]; Experiment 3, Table 7, 1 mg/ml, 48 hrs post incubation): +/- | TOXICITY EFFECTS CONTROLS ([3]; Experiment 3, Table 7, 5 mg/ml, 24 hrs post incubation): +/- | TOXICITY EFFECTS CONTROLS ([3]; Experiment 3, Table 7, 5 mg/ml, 48 hrs post incubation): +/- | TOXICITY EFFECTS CONTROL [3, 4]: - | TOXICITY EFFECTS CONTROL [3, 5]: - | TOXICITY EFFECTS CONTROL [3, 6]: - | TOXICITY EFFECTS CONTROL [3, 7]: - | TOXICITY EFFECTS CONTROL [3, 8]: +/- | TOXICITY EFFECTS CONTROL [3, 9]: +/- | TOXICITY EFFECTS CONTROL [3, 10]: - | TOXICITY EFFECTS CONTROL [3, 11]: - | TOXICITY EFFECTS CONTROL [3, 12]: +/- | TOXICITY EFFECTS CONTROL [3, 13]: +/- | TOXICITY EFFECTS CONTROL [3, 14]: +/- | TOXICITY EFFECTS CONTROL [3, 15]: + | TOXICITY EFFECTS CONTROLS ([3]; Experiment 5, Table 12, 48 Hours Post Incubation, 0.001 mg/ml): - | TOXICITY EFFECTS CONTROLS ([3]; Experiment 5, Table 12, 48 Hours Post Incubation, 0.01 mg/ml): - | TOXICITY EFFECTS CONTROLS ([3]; Experiment 5, Table 12, 48 Hours Post Incubation, 1 mg/ml): - | TOXICITY EFFECTS CONTROLS ([3]; Experiment 5, Table 12, 48 Hours Post Incubation, 2 mg/ml): +/- | TOXICITY EFFECTS CONTROLS ([3]; Experiment 5, Table 12, 48 Hours Post Incubation, 5 mg/ml): +/- | toxicity ([3]; Experiment 5, cell rounding, detaching from the monolayer, increased granularity, loss of normal morphology): more pronounced in the 0.5 and the 0.1 mg/ml concentrations

CC1=CC(C)=[N+]2CC[N+]3=C(C)C=C(C)[O][Co-3]23([n+]2c[nH]c(C)c2)([n+]2c[nH]c(C)c2)[O]1 [Compound 97]
TOXICITY EFFECTS CONTROL [3, 4]: - | TOXICITY EFFECTS CONTROL [3, 5]: - | TOXICITY EFFECTS CONTROL [3, 6]: - | TOXICITY EFFECTS CONTROL [3, 7]: - | TOXICITY EFFECTS CONTROL [3, 8]: +/- | TOXICITY EFFECTS CONTROL [3, 9]: +/- | TOXICITY EFFECTS CONTROL [3, 10]: - | TOXICITY EFFECTS CONTROL [3, 11]: - | TOXICITY EFFECTS CONTROL [3, 12]: +/- | TOXICITY EFFECTS CONTROL [3, 13]: +/- | TOXICITY EFFECTS CONTROL [3, 14]: +/- | TOXICITY EFFECTS CONTROL [3, 15]: +

CC1=[N+]2CC[N+]3=C(C)C=C(c4ccccc4)[O][Co-3]23([n+]2cc[nH]c2C)([n+]2cc[nH]c2C)[O]C(c2ccccc2)=C1 [Compound 102]
TOXICITY EFFECTS CONTROL [3, 4]: - | TOXICITY EFFECTS CONTROL [3, 5]: - | TOXICITY EFFECTS CONTROL [3, 6]: - | TOXICITY EFFECTS CONTROL [3, 7]: - | TOXICITY EFFECTS CONTROL [3, 8]: - | TOXICITY EFFECTS CONTROL [3, 9]: - | TOXICITY EFFECTS CONTROL [3, 10]: - | TOXICITY EFFECTS CONTROL [3, 11]: - | TOXICITY EFFECTS CONTROL [3, 12]: +/- | TOXICITY EFFECTS CONTROL [3, 13]: +/- | TOXICITY EFFECTS CONTROL [3, 14]: +/- | TOXICITY EFFECTS CONTROL [3, 15]: +
